According to US20240025862A1, “SUBSTITUTED N-PHENYLURACILS AND SALTS THEREOF, AND USE THEREOF AS HERBICIDAL ACTIVE SUBSTANCES” (Bayer Aktiengesellschaft, priority 2020, published 2024):

How the values were obtained:
Format in all cases: in vivo
[1] = system: Amaranthus retroflexus (AMARE); test: Post-emergence herbicidal action, greenhouse pot test; details: rated visually after about 3 weeks vs untreated controls, 100% = plants have died
Outline: (§1)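 Activity was scored by eye about 3 weeks after treatment against untreated plants, where 100% means dead plants and 0% means no difference. Plants at the one-leaf stage received a foliar spray of WP or EC formulations in water plus 0.5% additive (600 l/ha, up to 20 g/ha). Plants were grown in sandy loam pots in a greenhouse for 2–3 weeks before spraying.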

Veronica persica (VERPE) = test: as above
Outline: as §1

Viola tricolor (VIOTR) = test: as above
Outline: as §1

Avena fatua (AVEFA) = test: as above; details: 20 g/ha, rated visually after about 3 weeks vs untreated controls, 100% = plants have died
Outline: as §1

[2] = system: Polygonum convolvulus (POLCO); test: as above
Outline: as §1

Lolium rigidum (LOLRI) = test: as above; details: dosage 20 g/ha
Outline: as §1

[3] = system: Pharbitis purpurea (PHBPU); test: as above
Outline: as §1

[4] = system: Abutilon theophrasti (ABUTH); test: as above; details: rated visually after about 3 weeks vs untreated controls, 100% = plants have died
Outline: as §1

Zea mays (ZEAMX) = test: Post-emergence crop plant compatibility, greenhouse pot test; details: 1.25 g/ha, vs untreated controls
Outline: (§2)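 Compatibility was scored as visual % effect against untreated controls about 3 weeks after spraying green plant parts at the one-leaf stage. Formulations (WP/EC) were applied in aqueous form with 0.5% additive, 600 l/ha, to greenhouse-grown pot plants.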

[5] = system: Triticum aestivum (TRZAS); test: as above; details: vs untreated controls
Outline: as §2

[6] = system: Matricaria inodora (MATIN); test: Post-emergence herbicidal action, greenhouse pot test (also comparative test C)
Outline: (§3)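 Visual rating against untreated controls, about 3 weeks after spraying, from 0% (like control) to 100% (plants dead). Weeds were treated at the one-leaf stage, 2–3 weeks after sowing in sandy loam, with aqueous WP/EC spray containing 0.5% additive at 600 l/ha. Doses were ≤20 g/ha, or ≤5 g/ha for comparative test C.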

Setaria viridis (SETVI) = test: as above; details: for Post-emergence action against SETVI: 20 g/ha
Outline: as §3

[7] = system: Echinochloa crus-galli (ECHCG); test: as above; details: for Post-emergence action at 1.25 g/ha against ECHCG in %: rated visually after about 3 weeks vs untreated controls, 100% = plants have died
Outline: as §3

[8] = system: Alopecurus myosuroides (ALOMY); test: as above; details: rated visually after about 3 weeks vs untreated controls, 100% = plants have died
Outline: as §3

Oryza sativa (ORYSA) = test: Post-emergence crop plant compatibility, greenhouse pot test (also comparative test C); details: for Post-emergence action against ORYSA (crop plant compatibility): vs untreated controls
Outline: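 Visual damage versus untreated plants (0% = like control, 100% = plants died) was scored about 3 weeks after a post-emergence spray in greenhouse pots. Treatment: one-leaf stage, WP or EC in water at 600 l/ha with 0.5% additive; a/b/c mark different dosages on the same crop.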

Glycine max (GLXMA) = test: Post-emergence crop plant compatibility, greenhouse pot test; details: 1.25 g/ha
Outline: as §2

## Cn1c(C(F)(F)F)cc(=O)n(-c2cc(Oc3ccccc3OCC(=O)OCC3CCOC3)c(Cl)cc2F)c1=O (stereo not shown) [I.7-72]
[1]
  Post-emergence action at 1.25 g/ha against AMARE in %: 100%
  Post-emergence action at 5 g/ha against AMARE in %: 100%
  Post-emergence action at 20 g/ha against AMARE in %: 100%
Veronica persica (VERPE); 1.25 g/ha
  Post-emergence action against VERPE: 90%
Veronica persica (VERPE); 5 g/ha
  Post-emergence action against VERPE: 100%
Veronica persica (VERPE); 20 g/ha
  Post-emergence action against VERPE: 100%
Viola tricolor (VIOTR); 1.25 g/ha
  Post-emergence action against VIOTR: 100%
Viola tricolor (VIOTR); 5 g/ha
  Post-emergence action against VIOTR: 100%
Viola tricolor (VIOTR); 20 g/ha
  Post-emergence action against VIOTR: 100%
Avena fatua (AVEFA)
  Post-emergence action at 20 g/ha against AVEFA in %: 100%
[2]; dosage 1.25 g/ha
  Post-emergence action against POLCO in %: 80%
[2]; dosage 5 g/ha
  Post-emergence action against POLCO in %: 100%
[2]; dosage 20 g/ha
  Post-emergence action against POLCO in %: 100%
Lolium rigidum (LOLRI)
  Post-emergence action against LOLRI in %: 80%
[3]; dosage 1.25 g/ha
  Post-emergence action against PHBPU in %: 100%
[3]; dosage 5 g/ha
  Post-emergence action against PHBPU in %: 100%
[3]; dosage 20 g/ha
  Post-emergence action against PHBPU in %: 100%
[4]
  Post-emergence action at 1.25 g/ha against ABUTH in %: 100%
  Post-emergence action at 5 g/ha against ABUTH in %: 100%
  Post-emergence action at 20 g/ha against ABUTH in %: 100%
Zea mays (ZEAMX)
  Post-emergence action against ZEAMX (crop plant compatibility): 20%
[5]; 1.25 g/ha
  Post-emergence action against TRZAS (crop plant compatibility): 10%
[6]; dosage 5 g/ha
  Post-emergence action against MATIN in %: 100%
[6]; dosage 20 g/ha
  Post-emergence action against MATIN in %: 100%
Setaria viridis (SETVI)
  Post-emergence action against SETVI: 100%
Setaria viridis (SETVI); dosage 1.25 g/ha
  Post-emergence action against SETVI in %: 100%
Setaria viridis (SETVI); dosage 5 g/ha
  Post-emergence action against SETVI in %: 100%
[7]
  Post-emergence action at 1.25 g/ha against ECHCG in %: 80%
[7]; dosage 5 g/ha
  Post-emergence action against ECHCG in %: 100%
[7]; dosage 20 g/ha
  Post-emergence action against ECHCG in %: 100%
[8]
  Post-emergence action at 20 g/ha against ALOMY in %: 100%
Oryza sativa (ORYSA); 1.25 g/ha
  Post-emergence action against ORYSA (crop plant compatibility): 0%

## CCOCCOC(=O)COc1ccccc1Oc1cc(-n2c(=O)cc(C(F)(F)F)n(C)c2=O)c(F)cc1[N+](=O)[O-] [I.6-2]
[1]
  Post-emergence action at 1.25 g/ha against AMARE in %: 100%
  Post-emergence action at 5 g/ha against AMARE in %: 100%
  Post-emergence action at 20 g/ha against AMARE in %: 100%
Veronica persica (VERPE); 1.25 g/ha
  Post-emergence action against VERPE: 100%
Veronica persica (VERPE); 5 g/ha
  Post-emergence action against VERPE: 100%
Veronica persica (VERPE); 20 g/ha
  Post-emergence action against VERPE: 100%
Viola tricolor (VIOTR); 1.25 g/ha
  Post-emergence action against VIOTR: 100%
Viola tricolor (VIOTR); 5 g/ha
  Post-emergence action against VIOTR: 100%
Viola tricolor (VIOTR); 20 g/ha
  Post-emergence action against VIOTR: 100%
[2]; dosage 5 g/ha
  Post-emergence action against POLCO in %: 100%
[2]; dosage 20 g/ha
  Post-emergence action against POLCO in %: 100%
Lolium rigidum (LOLRI)
  Post-emergence action against LOLRI in %: 90%
[3]; dosage 1.25 g/ha
  Post-emergence action against PHBPU in %: 100%
[3]; dosage 5 g/ha
  Post-emergence action against PHBPU in %: 100%
[3]; dosage 20 g/ha
  Post-emergence action against PHBPU in %: 100%
[4]
  Post-emergence action at 1.25 g/ha against ABUTH in %: 100%
  Post-emergence action at 5 g/ha against ABUTH in %: 100%
  Post-emergence action at 20 g/ha against ABUTH in %: 100%
Zea mays (ZEAMX)
  Post-emergence action against ZEAMX (crop plant compatibility): 20%
[5]; 1.25 g/ha
  Post-emergence action against TRZAS (crop plant compatibility): 20%
[5]; 5 g/ha
  Post-emergence action against TRZAS (crop plant compatibility): 20%
Glycine max (GLXMA)
  Post-emergence action against GLXMA in %: 20%
[6]; dosage 5 g/ha
  Post-emergence action against MATIN in %: 90%
[6]; dosage 20 g/ha
  Post-emergence action against MATIN in %: 100%
Setaria viridis (SETVI)
  Post-emergence action against SETVI: 100%
Setaria viridis (SETVI); dosage 1.25 g/ha
  Post-emergence action against SETVI in %: 100%
Setaria viridis (SETVI); dosage 5 g/ha
  Post-emergence action against SETVI in %: 100%
[7]; dosage 5 g/ha
  Post-emergence action against ECHCG in %: 90%
[7]; dosage 20 g/ha
  Post-emergence action against ECHCG in %: 100%
[8]
  Post-emergence action at 20 g/ha against ALOMY in %: 90%
Oryza sativa (ORYSA); 1.25 g/ha
  Post-emergence action against ORYSA (crop plant compatibility): 0%
Oryza sativa (ORYSA); 5 g/ha
  Post-emergence action against ORYSA (crop plant compatibility): 0%
Oryza sativa (ORYSA); 20 g/ha, crop plant compatibility
  Post-emergence action against ORYSA in %: 20%

## COCCOC(=O)COc1ccccc1Oc1cc(-n2c(=O)cc(C(F)(F)F)n(C)c2=O)c(F)cc1Br [I.8-1]
[1]
  Post-emergence action at 1.25 g/ha against AMARE in %: 100%
  Post-emergence action at 5 g/ha against AMARE in %: 100%
  Post-emergence action at 20 g/ha against AMARE in %: 100%
Veronica persica (VERPE); 1.25 g/ha
  Post-emergence action against VERPE: 100%
Veronica persica (VERPE); 5 g/ha
  Post-emergence action against VERPE: 100%
Veronica persica (VERPE); 20 g/ha
  Post-emergence action against VERPE: 100%
Viola tricolor (VIOTR); 1.25 g/ha
  Post-emergence action against VIOTR: 100%
Viola tricolor (VIOTR); 5 g/ha
  Post-emergence action against VIOTR: 100%
Viola tricolor (VIOTR); 20 g/ha
  Post-emergence action against VIOTR: 100%
Avena fatua (AVEFA)
  Post-emergence action at 20 g/ha against AVEFA in %: 80%
[2]; dosage 1.25 g/ha
  Post-emergence action against POLCO in %: 90%
[2]; dosage 5 g/ha
  Post-emergence action against POLCO in %: 100%
[2]; dosage 20 g/ha
  Post-emergence action against POLCO in %: 100%
Lolium rigidum (LOLRI)
  Post-emergence action against LOLRI in %: 80%
[3]; dosage 1.25 g/ha
  Post-emergence action against PHBPU in %: 100%
[3]; dosage 5 g/ha
  Post-emergence action against PHBPU in %: 100%
[3]; dosage 20 g/ha
  Post-emergence action against PHBPU in %: 100%
[4]
  Post-emergence action at 1.25 g/ha against ABUTH in %: 100%
  Post-emergence action at 5 g/ha against ABUTH in %: 100%
  Post-emergence action at 20 g/ha against ABUTH in %: 100%
Zea mays (ZEAMX)
  Post-emergence action against ZEAMX (crop plant compatibility): 20%
[5]; 1.25 g/ha
  Post-emergence action against TRZAS (crop plant compatibility): 20%
[6]; dosage 1.25 g/ha
  Post-emergence action against MATIN in %: 100%
[6]; dosage 5 g/ha
  Post-emergence action against MATIN in %: 100%
[6]; dosage 20 g/ha
  Post-emergence action against MATIN in %: 100%
Setaria viridis (SETVI)
  Post-emergence action against SETVI: 100%
Setaria viridis (SETVI); dosage 1.25 g/ha
  Post-emergence action against SETVI in %: 100%
Setaria viridis (SETVI); dosage 5 g/ha
  Post-emergence action against SETVI in %: 100%
[7]
  Post-emergence action at 1.25 g/ha against ECHCG in %: 80%
[7]; dosage 5 g/ha
  Post-emergence action against ECHCG in %: 100%
[7]; dosage 20 g/ha
  Post-emergence action against ECHCG in %: 100%
[8]; 5 g/ha
  Post-emergence action at 5 g/ha against ALOMY in %: 100%
[8]
  Post-emergence action at 20 g/ha against ALOMY in %: 100%
Oryza sativa (ORYSA); 1.25 g/ha
  Post-emergence action against ORYSA (crop plant compatibility): 0%
Oryza sativa (ORYSA); 5 g/ha
  Post-emergence action against ORYSA (crop plant compatibility): 20%
